Test systems include NCI-H226 lung; DLD-1 colon; EKVX NSCLC; LXFL 529 NSCLC; M19-MEL melanoma; DMS 273 small cell lung; KM20L2 colon; HL-60(TB) leukemia; HOP-18 NSCLC; IGROV1 ovarian; DMS 114 small cell lung; SNB-78 CNS; BT-549 breast; XF 498 CNS; RXF-631 renal.
What all share (assay): DTP human tumour cell line panel, 48 h

For orientation: TGI means the concentration giving total growth inhibition. Read a low TGI as greater sensitivity of the cells.

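1) Cells in 96-well plates. 2) Compound, 48 h, 5 concentrations. 3) Linear interpolation between surrounding doses. 4) Unreached endpoint = highest concentration. The concentration for full growth arrest is given as TGI.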 Some results are limits rather than exact numbers.

For the compound `[O-]c1c2cc(-[n+]3c(-c4ccccc4)cc(-c4ccccc4)cc3-c3ccccc3)cc1COCCOCCOCCOCCOC2`, the TGI is > 100 µM in the assay with NCI-H226 lung; > 100 µM in the assay on DLD-1 colon; > 100 µM in the assay on EKVX NSCLC; 55 µM in the assay with LXFL 529 NSCLC; 87.3 µM in the assay on M19-MEL melanoma; > 100 µM in the assay with DMS 273 small cell lung. The TGI in the assay with KM20L2 colon, with HL-60(TB) leukemia and in the assay with HOP-18 NSCLC was > 100 µM in each case.

Turning to `C/C(=C\CBr)CCC(Br)C(C)(C)Cl` (stereo unspecified), the TGI in the assay on IGROV1 ovarian, in the assay with NCI-H226 lung, in the assay with DLD-1 colon, with LXFL 529 NSCLC, in the assay on M19-MEL melanoma and with DMS 273 small cell lung was > 100 µM in each case. Besides, the concentration for total growth inhibition (TGI) in the assay on DMS 114 small cell lung, with SNB-78 CNS and in the assay on HOP-18 NSCLC was > 100 µM throughout.

With `O=C(N/N=C/c1ccc([N+](=O)[O-])cc1)Nc1ccc(C(=O)O)cc1`, the TGI in the assay with IGROV1 ovarian was > 100 µM; in the assay with NCI-H226 lung, 85.8 µM; in the assay with EKVX NSCLC, 77 µM; in the assay with BT-549 breast, > 100 µM; in the assay on HL-60(TB) leukemia, > 100 µM.

Consider `Cc1ccc2nc(N/N=C/c3sccc3C)cc(C)c2c1`, for which the concentration for total growth inhibition (TGI) in the assay with IGROV1 ovarian, in the assay on NCI-H226 lung, in the assay with EKVX NSCLC, with BT-549 breast and with HL-60(TB) leukemia was > 100 µM each time.

For the compound `Cc1nc2ccc(C(F)(F)F)cc2nc1NCc1ccc(Cl)c(Cl)c1`, the TGI came to 31.3 µM in the assay on IGROV1 ovarian; 37.9 µM with NCI-H226 lung; 27.4 µM in the assay with EKVX NSCLC; 39.7 µM in the assay on BT-549 breast; 34.7 µM in the assay on HL-60(TB) leukemia.

For the compound `c1ccc2oc(-c3ccc(-c4nc5ccccc5o4)c4c3CC4)nc2c1`, the TGI in the assay on IGROV1 ovarian, in the assay with NCI-H226 lung, in the assay with EKVX NSCLC, with BT-549 breast and with HL-60(TB) leukemia was > 100 µM each time.

Consider `CC(C)=CCN1CC(C)C(=O)Nc2ccccc21` (stereo unspecified), for which the TGI in the assay with IGROV1 ovarian, in the assay on NCI-H226 lung, in the assay on EKVX NSCLC, in the assay with BT-549 breast and in the assay on HL-60(TB) leukemia was > 100 µM in each case.

Consider `CCN(CC)c1ccc2c(c1)Oc1ccc(N(CC)CC)cc1C21Oc2ccccc2-c2c1c1ccccc1n2CC` (stereo unspecified), for which the TGI with XF 498 CNS is 4.08 µM; in the assay with NCI-H226 lung, > 100 µM; in the assay with DLD-1 colon, > 100 µM; in the assay with EKVX NSCLC, > 100 µM; in the assay with LXFL 529 NSCLC, > 100 µM; in the assay on RXF-631 renal, > 100 µM. The total growth inhibition concentration (TGI) is > 100 µM with DMS 273 small cell lung; > 100 µM in the assay with KM20L2 colon; 3.61 µM in the assay with DMS 114 small cell lung; 11 µM in the assay on HL-60(TB) leukemia; > 100 µM with SNB-78 CNS; > 100 µM with HOP-18 NSCLC.

As to `COc1cc2c(c(O)c1OC)C(=O)[C@@H]1CCC(=O)N1C2`, the TGI in the assay on IGROV1 ovarian, in the assay on NCI-H226 lung, in the assay on EKVX NSCLC, in the assay on BT-549 breast and in the assay with HL-60(TB) leukemia was > 100 µM each time.

Take `CC1(C)OC(=S)N(c2ccccc2)C12C=Cc1ccccc1O2` (stereo unspecified): the TGI was > 100 µM with IGROV1 ovarian; > 100 µM with NCI-H226 lung; > 100 µM in the assay with EKVX NSCLC; > 100 µM in the assay on BT-549 breast; 52.4 µM with HL-60(TB) leukemia.

As for `CCCCc1ccc(-n2sc3ncc(C)cc3c2=O)cc1`, the TGI in the assay with IGROV1 ovarian was > 100 µM; in the assay on NCI-H226 lung, > 100 µM; in the assay on EKVX NSCLC it was 46.9 µM; in the assay on BT-549 breast it was 40.7 µM; in the assay with HL-60(TB) leukemia, 32.7 µM.

For `COC(=O)c1ccc2c(c1)S/C(=C/c1ccc3ccc4cccc5ccc1c3c45)S2`, the TGI in the assay with IGROV1 ovarian is > 100 µM; in the assay on NCI-H226 lung, > 100 µM; with EKVX NSCLC, > 100 µM; in the assay on BT-549 breast it was > 100 µM; in the assay with HL-60(TB) leukemia, 46.9 µM.

For the compound `NNC(=O)c1c(-c2cccnc2)cnc2ccccc12`, the TGI in the assay on IGROV1 ovarian, with NCI-H226 lung, in the assay with EKVX NSCLC, with BT-549 breast and in the assay on HL-60(TB) leukemia was > 100 µM throughout.

On to `CCOC(=O)C(=CNc1ccc(NC2=NCC(C)S2)cc1)C(=O)OCC` (stereo unspecified), for which the TGI in the assay on IGROV1 ovarian is > 100 µM; in the assay with NCI-H226 lung, > 100 µM; with EKVX NSCLC, > 100 µM; in the assay on BT-549 breast it was 48.9 µM; with HL-60(TB) leukemia it was 16.4 µM.

Take `CCOC(=O)N1N=C(/C(C)=N/OC)C(C)S1=O` (stereo unspecified): the TGI with IGROV1 ovarian, with NCI-H226 lung, in the assay on EKVX NSCLC, with BT-549 breast and in the assay on HL-60(TB) leukemia was > 100 µM each time.

On to `CC(=O)OCC(=O)O[C@@H]1[C@H]2[C@@H](OC(=O)c3ccccc3)[C@@H](C)C[C@]2(O)[C@H](OC(C)=O)[C@@]2(C)C(OC(C)=O)[C@]1(OC(C)=O)C[C@H]1C(=O)C(C)(C)C[C@@H]12` (stereo partly specified), for which the TGI with IGROV1 ovarian, with NCI-H226 lung, in the assay on EKVX NSCLC, with BT-549 breast and with HL-60(TB) leukemia was > 50 µM in each case.

In the case of `CCOC(=O)c1nc2cc(C(F)(F)F)ccc2nc1Nc1ccc(OC)cc1`, the TGI with IGROV1 ovarian, in the assay with NCI-H226 lung, in the assay on EKVX NSCLC, with BT-549 breast and with HL-60(TB) leukemia was > 100 µM each time.

Turning to `C/C=C/C#CC#C/C=C/C=C/C(O)CCO` (stereo unspecified), the total growth inhibition concentration (TGI) in the assay with IGROV1 ovarian, in the assay with XF 498 CNS, in the assay with NCI-H226 lung, in the assay with DLD-1 colon, in the assay on EKVX NSCLC and with LXFL 529 NSCLC was > 23.1 µM throughout. For the same compound, the TGI with M19-MEL melanoma, with DMS 273 small cell lung, in the assay on KM20L2 colon, in the assay with DMS 114 small cell lung, in the assay on HL-60(TB) leukemia and in the assay on SNB-78 CNS was > 23.1 µM in each case. The TGI in the assay on HOP-18 NSCLC was > 23.1 µM.

Turning to `CCc1c(C)c(C#N)c(=S)n(C2OC(COC(C)=O)C(OC(C)=O)C(OC(C)=O)C2OC(C)=O)c1-c1ccccc1` (stereo unspecified), the TGI in the assay with IGROV1 ovarian was > 31.6 µM; in the assay on NCI-H226 lung it was > 31.6 µM; in the assay with EKVX NSCLC, > 100 µM; in the assay on BT-549 breast, > 100 µM; with HL-60(TB) leukemia, > 100 µM.

As to `CN(C)C(=NCc1ccccc1)NC#N`, the TGI in the assay with IGROV1 ovarian, in the assay on DLD-1 colon, in the assay with EKVX NSCLC, with LXFL 529 NSCLC, in the assay on M19-MEL melanoma and in the assay with DMS 273 small cell lung was > 100 µM throughout. Further, the TGI in the assay on KM20L2 colon and in the assay with SNB-78 CNS was > 100 µM in each case.

For `CCOC(=O)C1(C(=O)OCC)[C@@H](c2ccccc2)C2=NO[C@@H]3CCC[C@H]1[C@H]23`, the TGI in the assay with IGROV1 ovarian, with NCI-H226 lung, with EKVX NSCLC, with BT-549 breast and in the assay with HL-60(TB) leukemia was > 100 µM in each case.

For the compound `O=[N+]([O-])c1ccc(C(=S)Nc2ccccc2)o1`, the TGI with IGROV1 ovarian was 17.8 µM; with NCI-H226 lung, 15 µM; in the assay with EKVX NSCLC it was 12.5 µM; in the assay on BT-549 breast, 14.1 µM; in the assay on HL-60(TB) leukemia it was 6.35 µM.

Take `c1cc2nnc1SCCCSc1ccc(nn1)SCCCS2`: the TGI in the assay with IGROV1 ovarian is > 81.3 µM; in the assay on NCI-H226 lung it was > 94.1 µM; with EKVX NSCLC, > 100 µM; with BT-549 breast it was > 100 µM; in the assay on HL-60(TB) leukemia, > 92.4 µM.

Consider `Cc1cn(CCCCC2=NCCCN2)c(=O)[nH]c1=O`, for which the TGI with IGROV1 ovarian is > 33.8 µM; with NCI-H226 lung, > 81.3 µM; with EKVX NSCLC it was > 42 µM; in the assay with BT-549 breast, > 20.5 µM; with HL-60(TB) leukemia it was > 19.7 µM.

As to `COc1cc(O)c2c(=O)c(O)c(-c3ccc(O)c(OC)c3)oc2c1`, the TGI with IGROV1 ovarian is > 100 µM; in the assay with NCI-H226 lung, > 100 µM; with EKVX NSCLC, > 100 µM; in the assay with BT-549 breast, > 100 µM; in the assay with HL-60(TB) leukemia, > 23 µM.

In the case of `CC1(C)OCC([C@H]2O[C@@H](CC(=S)NCCCCCCCCCCCCNC(=S)C[C@H]3O[C@@H](C4COC(C)(C)O4)[C@H]4OC(C)(C)O[C@H]43)[C@H]3OC(C)(C)O[C@H]32)O1` (stereo partly specified), the TGI in the assay with IGROV1 ovarian, in the assay on NCI-H226 lung, in the assay on EKVX NSCLC, in the assay with BT-549 breast and in the assay with HL-60(TB) leukemia was > 100 µM in each case.

As to `O=CNCNCCO`, the total growth inhibition concentration (TGI) in the assay on IGROV1 ovarian is > 100 µM; in the assay on NCI-H226 lung it was > 100 µM; in the assay with EKVX NSCLC it was > 100 µM; in the assay with BT-549 breast, > 100 µM; in the assay with HL-60(TB) leukemia, 72.8 µM.

Turning to `Nc1ncnc2oc(C3OC(COC(=O)c4ccccc4)C(OC(=O)c4ccccc4)C3OC(=O)c3ccccc3)nc12` (stereo unspecified), the TGI with IGROV1 ovarian, in the assay with NCI-H226 lung, with EKVX NSCLC, with BT-549 breast and in the assay on HL-60(TB) leukemia was > 100 µM in each case.

Source of the values: PubChem BioAssay (NCI).
